From ChEMBL document CHEMBL4665869, “New thiazolopyrimidine as anticancer agents: Synthesis, biological evaluation, DNA binding, molecular modeling and ADMET study” (Bioorg Med Chem Lett, 2020)

Tests used:
Assay type in all cases: functional
Conditions in all cases: read-out: GI
MOLT-4 = experiment: Growth inhibition of human MOLT-4 cells at 10 uM relative to control
MDA-MB-468 = experiment: Growth inhibition of human MDA-MB-468 cells at 10 uM relative to control
SN12C = experiment: Growth inhibition of human SN12C cells at 10 uM relative to control
MCF7 = experiment: Growth inhibition of human MCF7 cells at 10 uM relative to control
MDA-MB-231 = experiment: Growth inhibition of human MDA-MB-231 cells at 10 uM relative to control
HCC 2998 = experiment: Growth inhibition of human HCC 2998 cells at 10 uM relative to control
HT-29 = experiment: Growth inhibition of human HT-29 cells at 10 uM relative to control
CCRF-CEM = experiment: Growth inhibition of human CCRF-CEM cells at 10 uM relative to control
SF-295 = experiment: Growth inhibition of human SF-295 cells at 10 uM relative to control
HOP-62 = experiment: Growth inhibition of human HOP-62 cells at 10 uM relative to control
KM12 = experiment: Growth inhibition of human KM12 cells at 10 uM relative to control
SNB-19 = experiment: Growth inhibition of human SNB-19 cells at 10 uM relative to control
U-251 = experiment: Growth inhibition of human U-251 cells at 10 uM relative to control
UACC-257 = experiment: Growth inhibition of human UACC-257 cells at 10 uM relative to control
UACC-62 = experiment: Growth inhibition of human UACC-62 cells at 10 uM relative to control
786-0 = experiment: Growth inhibition of human 786-0 cells at 10 uM relative to control
Hs-578T = experiment: Growth inhibition of human Hs-578T cells at 10 uM relative to control
COLO 205 = experiment: Growth inhibition of human COLO 205 cells at 10 uM relative to control
HOP-92 = experiment: Growth inhibition of human HOP-92 cells at 10 uM relative to control
DU-145 = experiment: Growth inhibition of human DU-145 cells at 10 uM relative to control
RPMI-8226 = experiment: Growth inhibition of human RPMI-8226 cells at 10 uM relative to control
A549 = experiment: Growth inhibition of human A549 cells at 10 uM relative to control
A498 = experiment: Growth inhibition of human A498 cells at 10 uM relative to control
ACHN = experiment: Growth inhibition of human ACHN cells at 10 uM relative to control
SK-OV-3 = experiment: Growth inhibition of human SK-OV-3 cells at 10 uM relative to control
NCI-H23 = experiment: Growth inhibition of human NCI-H23 cells at 10 uM relative to control
M14 = experiment: Growth inhibition of human M14 cells at 10 uM relative to control
IGROV-1 = experiment: Growth inhibition of human IGROV-1 cells at 10 uM relative to control
Malme-3M = experiment: Growth inhibition of human Malme-3M cells at 10 uM relative to control

Q: For `CCOC(=O)C1=CSC2=NC(/C=C/c3ccc(OC)c(OC)c3)=CC(c3ccc(OC)c(OC)c3)N12` (centres undefined), which inhibition of growth at 10 µM (MOLT-4) is on record?
A: Its inhibition of growth at 10 µM is less than 10%.

Q: What about the inhibition of growth at 10 µM (MDA-MB-468) of the same molecule?
A: The inhibition of growth at 10 µM was less than 10%.

Q: What about the inhibition of growth at 10 µM (SN12C) of the same molecule?
A: Its inhibition of growth at 10 µM is less than 10%.

Q: What about the inhibition of growth at 10 µM (MCF7) of the same molecule?
A: Its inhibition of growth at 10 µM is less than 10%.

Q: And the inhibition of growth at 10 µM (MDA-MB-231)?
A: The inhibition of growth at 10 µM was less than 10%.

Q: And the inhibition of growth at 10 µM (HCC 2998)?
A: Its inhibition of growth at 10 µM is less than 10%.

Q: And the inhibition of growth at 10 µM (HT-29)?
A: Its inhibition of growth at 10 µM is less than 10%.

Q: What about the inhibition of growth at 10 µM (CCRF-CEM) of the same molecule?
A: Its inhibition of growth at 10 µM is less than 10%.

Q: What about the inhibition of growth at 10 µM (SF-295) of the same molecule?
A: The inhibition of growth at 10 µM was less than 10%.

Q: And the inhibition of growth at 10 µM (HOP-62)?
A: The inhibition of growth at 10 µM was less than 10%.

Q: What about the inhibition of growth at 10 µM (KM12) of the same molecule?
A: Its inhibition of growth at 10 µM is less than 10%.

Q: And the inhibition of growth at 10 µM (SNB-19)?
A: Its inhibition of growth at 10 µM is less than 10%.

Q: What about the inhibition of growth at 10 µM (U-251) of the same molecule?
A: Its inhibition of growth at 10 µM is less than 10%.

Q: What about the inhibition of growth at 10 µM (UACC-257) of the same molecule?
A: The inhibition of growth at 10 µM was less than 10%.

Q: And the inhibition of growth at 10 µM (UACC-62)?
A: Its inhibition of growth at 10 µM is less than 10%.

Q: What about the inhibition of growth at 10 µM (786-0) of the same molecule?
A: Its inhibition of growth at 10 µM is less than 10%.

Q: What about the inhibition of growth at 10 µM (Hs-578T) of the same molecule?
A: The inhibition of growth at 10 µM was less than 10%.

Q: What about the inhibition of growth at 10 µM (COLO 205) of the same molecule?
A: The inhibition of growth at 10 µM was less than 10%.

Q: What about the inhibition of growth at 10 µM (HOP-92) of the same molecule?
A: The inhibition of growth at 10 µM was 39.5%.

Q: And the inhibition of growth at 10 µM (DU-145)?
A: The inhibition of growth at 10 µM was less than 10%.

Q: And the inhibition of growth at 10 µM (RPMI-8226)?
A: The inhibition of growth at 10 µM was less than 10%.

Q: And the inhibition of growth at 10 µM (A549)?
A: The inhibition of growth at 10 µM was less than 10%.

Q: And the inhibition of growth at 10 µM (A498)?
A: Its inhibition of growth at 10 µM is less than 10%.

Q: And the inhibition of growth at 10 µM (ACHN)?
A: The inhibition of growth at 10 µM was 12.8%.

Q: What about the inhibition of growth at 10 µM (SK-OV-3) of the same molecule?
A: The inhibition of growth at 10 µM was less than 10%.

Q: What about the inhibition of growth at 10 µM (NCI-H23) of the same molecule?
A: The inhibition of growth at 10 µM was less than 10%.

Q: What about the inhibition of growth at 10 µM (M14) of the same molecule?
A: The inhibition of growth at 10 µM was less than 10%.

Q: And the inhibition of growth at 10 µM (IGROV-1)?
A: The inhibition of growth at 10 µM was less than 10%.

Q: What about the inhibition of growth at 10 µM (Malme-3M) of the same molecule?
A: Its inhibition of growth at 10 µM is less than 10%.
